Results: publication PMC8617681 (Pharmaceuticals, 2021)

Legend:
CNS metastasis = conditions: 11 patients with measurable CNS lesions, cited from earlier work
human OATP1B3 = biological target: T1, human OATP1B3 (Homo sapiens, UniProt Q9NPD5); assay: Cellular uptake in OATP1B3-overexpressing HEK293 cells; assay type: in vitro ADME; conditions: 5 µM, 2.5 min incubation, HEK293 OATP1B3
T1 construct: Werner Siegmund and Dr. Markus Keiser (University of Greifswald); host or cells: HEK293
T1 sequence (Q9NPD5 1-702): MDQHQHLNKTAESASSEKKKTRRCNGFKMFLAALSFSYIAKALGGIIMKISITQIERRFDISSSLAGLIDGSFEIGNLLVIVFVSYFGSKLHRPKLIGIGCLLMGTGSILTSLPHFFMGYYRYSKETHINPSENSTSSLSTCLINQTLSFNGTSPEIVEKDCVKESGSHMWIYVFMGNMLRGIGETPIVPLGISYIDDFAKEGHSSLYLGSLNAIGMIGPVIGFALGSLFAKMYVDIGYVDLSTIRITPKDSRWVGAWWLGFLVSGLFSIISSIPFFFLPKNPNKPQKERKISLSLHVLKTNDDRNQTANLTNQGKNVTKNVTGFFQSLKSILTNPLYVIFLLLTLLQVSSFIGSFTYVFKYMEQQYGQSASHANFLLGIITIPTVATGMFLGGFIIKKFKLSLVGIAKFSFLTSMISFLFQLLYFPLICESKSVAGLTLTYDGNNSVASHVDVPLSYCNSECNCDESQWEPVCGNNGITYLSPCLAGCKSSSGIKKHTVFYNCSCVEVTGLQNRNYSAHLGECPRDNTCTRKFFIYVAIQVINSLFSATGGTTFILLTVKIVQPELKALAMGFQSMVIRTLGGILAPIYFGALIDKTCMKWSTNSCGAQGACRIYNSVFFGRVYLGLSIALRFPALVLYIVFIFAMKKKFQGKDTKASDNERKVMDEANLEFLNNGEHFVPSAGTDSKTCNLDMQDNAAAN
Experimental: HEK293 cells, vector-transfected or human (h)SLCO1A2, hSLCO1B1 or hSLCO1B3 cDNA-transfected were kind gifts from Prof. Werner Siegmund and Dr. Markus Keiser (University of Greifswald, Greifswald, Germany). All the HEK293 cell lines were maintained in DMEM supplemented with 10% (v/v) FBS, 1% penicillin–streptomycin mix at 37 °C in 5% (v/v) CO2 and 500 μg/mL G418. Cells were first seeded in 12-well plates [coated with 50 mg/L poly (l-lysine) and 50 mg/L poly (l-ornithine)] at a density of 1.0 × 10^5 cells/well. For the uptake study, in order to induce the expression of OATP transporters, the cell culture medium was replaced with culture medium supplemented with 5 mM sodium butyrate 24 h before performing the uptake assay.
The uptake transport study was performed as described previously. […] The Krebs–Henseleit solution was prepared from Krebs–Henseleit-buffer modified powder and supplemented with 25 mM NaHCO3 and 2.5 mM CaCl2 adjusted to pH 6.4 with 1 M HCL. At 2.5 min, the incubation buffer was removed, and uptake was terminated by adding 1 mL of ice-cold Krebs–Henseleit buffer, followed by two times washing with 1 mL of ice-cold Krebs–Henseleit buffer. […] The cellular protein amount was determined by the Bradford method using 10 μL of the cell lysates with bovine serum albumin as a standard.

[1] = patients; cited from earlier work
[2] = test system: RET-mutant medullary thyroid cancer; conditions: clinical phase 1 study; cited from earlier work

Compound: COc1ccc(CN2C3CC2CN(c2ccc(-c4cc(OCC(C)(C)O)cn5ncc(C#N)c45)cn2)C3)cn1 [selpercatinib]
- percentage with an objective intracranial response (CNS metastasis; independent review): 91%
- complete responses (intracranial) (CNS metastasis): 27%
- partial responses (intracranial) (CNS metastasis): 64%
- uptake compared to vector control cells (human OATP1B3): did not observe any significant increase in the uptake
- AUC0–24h [1]: 51,600 ng/mL*h
- average Cmax [1]: 2980 ng/mL
- overall response rate [2]: 45%
